Test results from ChEMBL document CHEMBL5625170, “Design, synthesis, and biological evaluation of novel penindolone derivatives as potential inhibitors of hemagglutinin-mediated membrane fusion” (Eur J Med Chem, 2023).

Experiments:
[1] = Cytotoxicity against dog MDCK cells assessed as cell viability measured after 48 hrs by MTT assay; assay type: toxicity, cell-based, Canis lupus familiaris
[2] = Selectivity index, ratio of CC50 for cytotoxicity against dog MDCK cells to IC50 for anti-viral activity against Influenza A virus (A/Puerto Rico/8/34 infected in MDCK cells; assay type: toxicity, cell-based; details: read-out: Selectivity Index
[3] = molecular target: Hemagglutinin (Influenza A virus (A/Puerto Rico/8/1934(H1N1)), UniProt P03452); assay: Binding affinity to Influenza A virus (A/Puerto Rico/8/34) Hemagglutinin by surface plasmon resonance (SPR) assay
Hemagglutinin (Influenza A virus (A/Puerto Rico/8/1934(H1N1)), UniProt P03452), sequence (P03452 whole entry): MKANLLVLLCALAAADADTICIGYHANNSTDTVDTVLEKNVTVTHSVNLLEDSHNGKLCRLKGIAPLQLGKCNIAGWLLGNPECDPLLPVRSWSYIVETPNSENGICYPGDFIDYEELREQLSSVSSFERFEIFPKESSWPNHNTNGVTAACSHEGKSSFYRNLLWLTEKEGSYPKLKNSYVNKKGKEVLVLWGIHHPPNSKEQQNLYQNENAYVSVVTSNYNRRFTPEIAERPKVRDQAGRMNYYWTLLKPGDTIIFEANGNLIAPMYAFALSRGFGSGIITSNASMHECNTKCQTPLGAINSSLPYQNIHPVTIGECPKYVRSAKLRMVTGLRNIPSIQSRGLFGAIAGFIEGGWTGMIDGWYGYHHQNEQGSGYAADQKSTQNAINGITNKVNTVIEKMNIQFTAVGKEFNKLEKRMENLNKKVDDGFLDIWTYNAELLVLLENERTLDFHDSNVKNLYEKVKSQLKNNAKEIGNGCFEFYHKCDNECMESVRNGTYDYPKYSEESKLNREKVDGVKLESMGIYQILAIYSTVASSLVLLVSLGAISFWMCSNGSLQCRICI

COc1ccc(-c2ccc3c(Cc4c(O)c(C)cc(C(C)=O)c4O)c(Cc4c(O)c(C)cc(C(C)=O)c4O)[nH]c3c2)cc1
CC50 at 48 h [1]: > 300 µM
selectivity ratio [2]: > 34.5

CC(=O)c1cc(C)c(O)c(Cc2[nH]c3cc(-c4ccc(C)cc4)ccc3c2Cc2c(O)c(C)cc(C(C)=O)c2O)c1O
CC50 at 48 h [1]: > 300 µM
selectivity ratio [2]: > 12.4

COc1cc(-c2ccc3c(Cc4c(O)c(C)cc(C(C)=O)c4O)c(Cc4c(O)c(C)cc(C(C)=O)c4O)[nH]c3c2)cc(OC)c1OC
CC50 at 48 h [1]: > 300 µM
selectivity ratio [2]: > 14.9

CCOC(=O)c1c(CSc2ccccc2)n(C)c2cc(Br)c(O)c(CN(C)C)c12 [UMIFENOVIR]
Kd [3]: 51.4 µM

CC(=O)c1cc(C)c(O)c(Cc2[nH]c3ccc(-c4ccc(C(F)(F)F)cc4)cc3c2Cc2c(O)c(C)cc(C(C)=O)c2O)c1O
CC50 at 48 h [1]: > 300 µM
selectivity ratio [2]: > 13.7

COc1ccc(-c2ccc3c(Cc4c(O)c(C)cc(C(C)=O)c4O)c(Cc4c(O)c(C)cc(C(C)=O)c4O)[nH]c3c2)cc1OC
CC50 at 48 h [1]: 240 µM
selectivity ratio [2]: 12.2

CC(=O)c1cc(C)c(O)c(Cc2[nH]c3cc(-c4csc5ccccc45)ccc3c2Cc2c(O)c(C)cc(C(C)=O)c2O)c1O
CC50 at 48 h [1]: > 300 µM
selectivity ratio [2]: > 14.4

CC(=O)c1cc(C)c(O)c(Cc2[nH]c3cc(-c4ccc(C(F)(F)F)cc4)ccc3c2Cc2c(O)c(C)cc(C(C)=O)c2O)c1O
CC50 at 48 h [1]: > 300 µM
selectivity ratio [2]: > 12

CC(=O)c1cc(C)c(O)c(Cc2[nH]c3cc(C)ccc3c2Cc2c(O)c(C)cc(C(C)=O)c2O)c1O
CC50 at 48 h [1]: > 300 µM
selectivity ratio [2]: > 19.9

COc1ccc(-c2ccc3[nH]c(Cc4c(O)c(C)cc(C(C)=O)c4O)c(Cc4c(O)c(C)cc(C(C)=O)c4O)c3c2)cc1
CC50 at 48 h [1]: > 300 µM
selectivity ratio [2]: > 18.4

CSc1ccc(-c2ccc3c(Cc4c(O)c(C)cc(C(C)=O)c4O)c(Cc4c(O)c(C)cc(C(C)=O)c4O)[nH]c3c2)cc1
CC50 at 48 h [1]: > 300 µM
selectivity ratio [2]: > 33
